From the supplement of paper PMC11451515

Key:
[1] = test system: SEM cells; assay: AUC of viability dose-response curve (% viability x log10 dose units); higher = less sensitive; details: 48 h
Method in brief: (§1)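 Medium-adapted leukemia cells in 1536-well plates, at 500 or 1000 cells/well, were incubated for 48 h at 37°C with library compounds in DMSO at 11 threefold doses from 47 μM to 0.79 nM. CellTiter-Glo One luminescence normalised per plate to DMSO and cell-free wells was fitted with a four-parameter log-logistic model over log10 doses. Area under the curve was integrated from this fit by trapezoidal rule, with curves beyond full viability scaled and failed quality-control curves removed.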

[2] = test system: NOMO1; assay: as above; details: 48 h
Method in brief: as §1

[3] = test system: P12-Ichikawa; assay: cell viability relative to DMSO control; higher = less cytotoxic; details: RPMI 5 mM glucose + 10% dialyzed FBS, 48 h
Method in brief: (§2)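 NOMO1 or SEM cells were plated at 500 cells/well and P12-Ichikawa cells at 1000 cells/well in 1536-well plates (5 μl), after each leukemia line had been adapted for at least four passages in each medium. Pin dosing delivered library compounds in DMSO at 11 threefold concentrations, 47 μM to 0.79 nM. CellTiter-Glo One luminescence was read after 48 h at 37°C. Viability is reported as a per-plate percentage of DMSO wells, with cell-free wells as background.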

[4] = test system: SEM cells; assay: as above; details: 48 h
Method in brief: as §2

[5] = test system: P12-Ichikawa; assay: AUC of viability dose-response curve (% viability x log10 dose units); higher = less sensitive; details: 48 h
Method in brief: as §1

[6] = test system: NOMO1; assay: cell viability relative to DMSO control; higher = less cytotoxic; details: RPMI 5 mM glucose + 10% FBS, 48 h
Method in brief: as §2

CN(C)CCCN1c2ccccc2CCc2ccc(Cl)cc21
Details	AUC of viability dose-response curve	cell viability [%]
[1], HPLM + 10% dialyzed FBS	453	–
[1], RPMI 5 mM glucose + 10% FBS	453	–
[1], RPMI 5 mM glucose + 10% dialyzed FBS	452	–
[2], HPLM + 10% dialyzed FBS	431	–
[2], RPMI 5 mM glucose + 10% FBS	448	–
[2], RPMI 5 mM glucose + 10% dialyzed FBS	441	–
[3], 0.000781 µM	–	71
[3], 0.00234 µM	–	155
[3], 0.00702 µM	–	125
[3], 0.0211 µM	–	145
[3], 0.0632 µM	–	138
[3], 0.19 µM	–	134
[3], 0.569 µM	–	142
[3], 1.71 µM	–	142
[3], 5.12 µM	–	134
[3], 15.4 µM	–	125
[3], 46.1 µM	–	82.9

[4], HPLM + 10% dialyzed FBS
Details	cell viability [%]
0.000781 µM	122
0.00234 µM	132
0.00702 µM	122
0.0211 µM	134
0.0632 µM	118
0.19 µM	122
0.569 µM	125
1.71 µM	122
5.12 µM	105
15.4 µM	109
46.1 µM	39.6

Cc1cc2c(cc1C1(c3ccc(C(=O)O)cn3)CC1)C(C)(C)CCC2(C)C
AUC of viability dose-response curve
Details	[1]	[2]	[5]
HPLM + 10% dialyzed FBS	458	371	433
RPMI 5 mM glucose + 10% FBS	418	429	435
RPMI 5 mM glucose + 10% dialyzed FBS	407	417	429

NC/1=N/C(=O)N(/C=C1F)[C@H]2CS[C@H](CO)O2
Details	AUC of viability dose-response curve	cell viability [%]
[1], HPLM + 10% dialyzed FBS	392	–
[1], RPMI 5 mM glucose + 10% FBS	442	–
[1], RPMI 5 mM glucose + 10% dialyzed FBS	418	–
[2], HPLM + 10% dialyzed FBS	472	–
[2], RPMI 5 mM glucose + 10% FBS	449	–
[2], RPMI 5 mM glucose + 10% dialyzed FBS	462	–
[6], 0.000781 µM	–	108
[6], 0.00234 µM	–	121
[6], 0.00702 µM	–	121
[6], 0.0211 µM	–	127
[6], 0.0632 µM	–	133
[6], 0.19 µM	–	157
[6], 0.569 µM	–	141
[6], 1.71 µM	–	139
[6], 5.12 µM	–	131
[6], 15.4 µM	–	151
[6], 46.1 µM	–	141

cell viability [%], [4]
Details	HPLM + 10% dialyzed FBS	RPMI 5 mM glucose + 10% dialyzed FBS
0.000781 µM	83.9	101
0.00234 µM	107	118
0.00702 µM	107	115
0.0211 µM	115	152
0.0632 µM	124	126
0.19 µM	116	121
0.569 µM	123	144
1.71 µM	126	131
5.12 µM	143	137
15.4 µM	142	144
46.1 µM	148	153

CC(C)(O)Cn1c(NC(=O)c2ccc(-c3cn[nH]c3)s2)nc2cc(CN3CCOCC3)ccc21
AUC of viability dose-response curve
Details	[1]	[2]	[5]
HPLM + 10% dialyzed FBS	226	352	365
RPMI 5 mM glucose + 10% FBS	206	369	364
RPMI 5 mM glucose + 10% dialyzed FBS	207	368	364
